In ChEMBL document CHEMBL1201862, “PubChem BioAssay data set” (2004):
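1) Cells in 96-well plates. 2) Compound, 48 h, 5 concentrations. 3) Linear interpolation between surrounding doses. 4) Unreached endpoint = highest concentration. At the GI50, growth is halved.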 Calls of active or inactive are those of the source. Rule as the data show it: active = GI50 up to about 1.1 µM and inactive = higher.

Experiments:
Test in all cases: NCI anticancer screen, dose series, 48 h
IGROV-1 = system: IGROV-1
CAKI-1 = system: CAKI-1
SK-OV-3 = system: SK-OV-3
HOP-92 = system: HOP-92
CCRF-CEM = system: CCRF-CEM
SK-MEL-5 = system: SK-MEL-5
OVCAR-5 = system: OVCAR-5
HCT-116 = system: HCT-116
T47D = system: T47D
NCI-H23 = system: NCI-H23
NCI/ADR-RES = system: NCI/ADR-RES
MDA-MB-435 = system: MDA-MB-435
SF-295 = system: SF-295
UACC-257 = system: UACC-257
U-251 = system: U-251
HOP-62 = system: HOP-62
K562 = system: K562
RXF 393 = system: RXF 393
HL-60 = system: HL-60

For `CN(C)N1C(=O)c2ccccc2NC1c1ccccc1` (stereo not drawn), the GI50 (IGROV-1) was > 100 µM (inactive), the GI50 (CAKI-1) was > 100 µM (inactive) and the GI50 (SK-OV-3) was > 100 µM (inactive). For the same molecule, the GI50 (HOP-92) was > 100 µM (inactive), the GI50 (CCRF-CEM) was > 100 µM (inactive) and the GI50 (SK-MEL-5) was > 100 µM (inactive). The GI50 (OVCAR-5) was > 100 µM (inactive), the GI50 (HCT-116) was > 100 µM (inactive) and the GI50 (T47D) was > 100 µM (inactive). The GI50 (NCI-H23) was > 100 µM (inactive), the GI50 (NCI/ADR-RES) was > 100 µM (inactive) and the GI50 (MDA-MB-435) was > 100 µM (inactive). For the same molecule, the GI50 (SF-295) was > 100 µM (inactive), the GI50 (UACC-257) was > 100 µM (inactive) and the GI50 (U-251) was > 100 µM (inactive). For the same molecule, the GI50 (HOP-62) was > 100 µM (inactive).

For `CC(=O)N(C(C)=O)n1c(-c2ccccc2)n[nH]c1=O`, the GI50 (K562) was > 100 µM (inactive), the GI50 (IGROV-1) was > 100 µM (inactive) and the GI50 (SK-OV-3) was > 100 µM (inactive). The GI50 (HOP-92) was > 100 µM (inactive), the GI50 (CCRF-CEM) was > 100 µM (inactive) and the GI50 (RXF 393) was > 100 µM (inactive). The GI50 (SK-MEL-5) was > 100 µM (inactive), the GI50 (OVCAR-5) was > 100 µM (inactive) and the GI50 (HCT-116) was > 100 µM (inactive). The GI50 (NCI-H23) was > 100 µM (inactive), the GI50 (NCI/ADR-RES) was > 100 µM (inactive) and the GI50 (MDA-MB-435) was > 100 µM (inactive). For the same molecule, the GI50 (SF-295) was > 100 µM (inactive), the GI50 (UACC-257) was > 100 µM (inactive) and the GI50 (U-251) was > 100 µM (inactive). The GI50 (HOP-62) was > 100 µM (inactive).

With `COC(=O)C1(CCCCl)CCCN1C(=O)OC(C)(C)C` (stereo not drawn) the GI50 (K562) was 36.7 µM (inactive), the GI50 (IGROV-1) was > 100 µM (inactive) and the GI50 (CAKI-1) was > 100 µM (inactive). The GI50 (SK-OV-3) was > 100 µM (inactive), the GI50 (CCRF-CEM) was 37.5 µM (inactive) and the GI50 (RXF 393) was > 100 µM (inactive). For the same molecule, the GI50 (SK-MEL-5) was > 100 µM (inactive), the GI50 (OVCAR-5) was > 100 µM (inactive) and the GI50 (HCT-116) was > 100 µM (inactive). The GI50 (T47D) was > 100 µM (inactive), the GI50 (NCI-H23) was > 100 µM (inactive) and the GI50 (NCI/ADR-RES) was > 100 µM (inactive). The GI50 (MDA-MB-435) was > 100 µM (inactive), the GI50 (SF-295) was > 100 µM (inactive) and the GI50 (UACC-257) was > 100 µM (inactive). For the same molecule, the GI50 (U-251) was > 100 µM (inactive) and the GI50 (HOP-62) was > 100 µM (inactive).

In the case of `CC(O)/C=C/C1OC(=O)CC1Nc1ccc(C=O)cc1` (stereo not drawn), the GI50 (K562) is reported as 41.5 µM (inactive), the GI50 (IGROV-1) is reported as 91.2 µM (inactive) and the GI50 (SK-OV-3) is reported as > 100 µM (inactive). The GI50 (HOP-92) was 15.3 µM (inactive), the GI50 (CCRF-CEM) was 15.8 µM (inactive) and the GI50 (RXF 393) was > 100 µM (inactive). The GI50 (SK-MEL-5) was 16.6 µM (inactive), the GI50 (OVCAR-5) was > 100 µM (inactive) and the GI50 (HCT-116) was > 100 µM (inactive). For the same molecule, the GI50 (T47D) was 60.7 µM (inactive), the GI50 (NCI-H23) was 59 µM (inactive) and the GI50 (NCI/ADR-RES) was > 100 µM (inactive). The GI50 (MDA-MB-435) was > 100 µM (inactive), the GI50 (SF-295) was 28 µM (inactive) and the GI50 (UACC-257) was 48.2 µM (inactive). For the same molecule, the GI50 (U-251) was 77.6 µM (inactive) and the GI50 (HOP-62) was 20.9 µM (inactive).

`N=c1oc2cc(O)ccc2cc1C(=O)NCc1ccccc1` was tested, and the GI50 (K562) was 10.3 µM (inactive), the GI50 (IGROV-1) was 21.3 µM (inactive) and the GI50 (CAKI-1) was 20.3 µM (inactive). For the same molecule, the GI50 (SK-OV-3) was 16.2 µM (inactive), the GI50 (CCRF-CEM) was 9.42 µM (inactive) and the GI50 (RXF 393) was 19.5 µM (inactive). The GI50 (SK-MEL-5) was 12.9 µM (inactive), the GI50 (OVCAR-5) was 53.7 µM (inactive) and the GI50 (HCT-116) was 22.2 µM (inactive). For the same molecule, the GI50 (T47D) was 8.61 µM (inactive), the GI50 (NCI-H23) was 19.5 µM (inactive) and the GI50 (NCI/ADR-RES) was 19.7 µM (inactive). For the same molecule, the GI50 (MDA-MB-435) was 17.7 µM (inactive), the GI50 (SF-295) was 35.2 µM (inactive) and the GI50 (UACC-257) was 44.7 µM (inactive). The GI50 (U-251) was 18.7 µM (inactive) and the GI50 (HOP-62) was 31.1 µM (inactive).

With `COC(=O)C1CC2(C)C=CC1N(C(=O)OCc1ccccc1)C2` (stereo not drawn) the GI50 (K562) was 49.7 µM (inactive), the GI50 (IGROV-1) was > 100 µM (inactive) and the GI50 (CAKI-1) was > 100 µM (inactive). The GI50 (SK-OV-3) was 27.7 µM (inactive), the GI50 (CCRF-CEM) was 69 µM (inactive) and the GI50 (RXF 393) was 41.9 µM (inactive). For the same molecule, the GI50 (SK-MEL-5) was 34.8 µM (inactive), the GI50 (OVCAR-5) was > 100 µM (inactive) and the GI50 (HCT-116) was 40.8 µM (inactive). The GI50 (HL-60) was 24.2 µM (inactive), the GI50 (T47D) was 40 µM (inactive) and the GI50 (NCI-H23) was 59.3 µM (inactive). The GI50 (NCI/ADR-RES) was 41.3 µM (inactive), the GI50 (MDA-MB-435) was 79.6 µM (inactive) and the GI50 (SF-295) was 42.4 µM (inactive). The GI50 (UACC-257) was 65.3 µM (inactive), the GI50 (U-251) was 58.1 µM (inactive) and the GI50 (HOP-62) was > 100 µM (inactive).

`O=[N+]([O-])/C(C(Cl)=C(Cl)Cl)=C(\Nc1cccc2cccnc12)Sc1ccccc1` was tested, and the GI50 (K562) was 28.4 µM (inactive), the GI50 (CAKI-1) was 22 µM (inactive) and the GI50 (SK-OV-3) was 34.2 µM (inactive). For the same molecule, the GI50 (CCRF-CEM) was 27.7 µM (inactive), the GI50 (OVCAR-5) was 20.8 µM (inactive) and the GI50 (HCT-116) was 19.4 µM (inactive). For the same molecule, the GI50 (T47D) was 18.3 µM (inactive), the GI50 (NCI-H23) was 18.3 µM (inactive) and the GI50 (NCI/ADR-RES) was 22.1 µM (inactive). The GI50 (MDA-MB-435) was 18.7 µM (inactive), the GI50 (SF-295) was 19 µM (inactive) and the GI50 (UACC-257) was 19.8 µM (inactive). For the same molecule, the GI50 (U-251) was 16.2 µM (inactive) and the GI50 (HOP-62) was 23.4 µM (inactive).

With `O=c1cc(-c2ccccc2)[nH]c2cc(F)c(F)cc12` the GI50 (K562) was 0.29 µM (active), the GI50 (IGROV-1) was 0.634 µM (active) and the GI50 (CAKI-1) was > 100 µM (inactive). For the same molecule, the GI50 (SK-OV-3) was 0.575 µM (active), the GI50 (HOP-92) was 0.789 µM (active) and the GI50 (CCRF-CEM) was 0.379 µM (active). The GI50 (RXF 393) was 0.23 µM (active), the GI50 (SK-MEL-5) was 0.197 µM (active) and the GI50 (OVCAR-5) was 1.89 µM (inactive). The GI50 (HCT-116) was 0.417 µM (active), the GI50 (HL-60) was 0.23 µM (active) and the GI50 (NCI-H23) was 0.653 µM (active). The GI50 (NCI/ADR-RES) was 0.425 µM (active), the GI50 (MDA-MB-435) was 0.1 µM (active) and the GI50 (SF-295) was 1.21 µM (inactive). For the same molecule, the GI50 (UACC-257) was 0.498 µM (active), the GI50 (U-251) was 0.692 µM (active) and the GI50 (HOP-62) was 1.33 µM (inactive).
